Active and inactive are the calls of the source.
Legend:
[1] = HeLa cell cytotoxicity, dose response, cytotoxicity control for MgcRacGAP inhibitor project (AID 624300); type: functional
[2] = LGR2 antagonists, dose response, cell-based, HEK293, CRE-luciferase reporter, cherry pick, set 2 (AID 743343); type: functional;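 further: transfected cells were stimulated with diluted bursicon conditioned medium after compound addition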
Beta Lactamase = Beta Lactamase (Pseudomonas aeruginosa, UniProt Q932Y6); assay: beta-lactamase reporter inhibitor potency, dose response, artefact control for NOD2-RIPK2 interaction inhibitor project, BLA reporter cells, FRET fluorescence (AID 651552); type: functional, cell-based
[3] = target: Phosphoethanolamine/phosphocholine phosphatase (Homo sapiens, UniProt Q8TCT1); assay: SAR assay for compounds that inhibit PHOSPHO1. [Related pubchem assays (depositor defined):AID1545, AID1565, AID1574]
[4] = target: T1, Rac GTPase-activating protein 1 (Homo sapiens, UniProt Q9H0H5); assay: MgcRacGAP GTPase-activating activity inhibitors, confirmation, biochemical, ADP Hunter fluorescence, primary and confirmatory (AID 624330); type: functional
T1 sequence (Q9H0H5 whole entry): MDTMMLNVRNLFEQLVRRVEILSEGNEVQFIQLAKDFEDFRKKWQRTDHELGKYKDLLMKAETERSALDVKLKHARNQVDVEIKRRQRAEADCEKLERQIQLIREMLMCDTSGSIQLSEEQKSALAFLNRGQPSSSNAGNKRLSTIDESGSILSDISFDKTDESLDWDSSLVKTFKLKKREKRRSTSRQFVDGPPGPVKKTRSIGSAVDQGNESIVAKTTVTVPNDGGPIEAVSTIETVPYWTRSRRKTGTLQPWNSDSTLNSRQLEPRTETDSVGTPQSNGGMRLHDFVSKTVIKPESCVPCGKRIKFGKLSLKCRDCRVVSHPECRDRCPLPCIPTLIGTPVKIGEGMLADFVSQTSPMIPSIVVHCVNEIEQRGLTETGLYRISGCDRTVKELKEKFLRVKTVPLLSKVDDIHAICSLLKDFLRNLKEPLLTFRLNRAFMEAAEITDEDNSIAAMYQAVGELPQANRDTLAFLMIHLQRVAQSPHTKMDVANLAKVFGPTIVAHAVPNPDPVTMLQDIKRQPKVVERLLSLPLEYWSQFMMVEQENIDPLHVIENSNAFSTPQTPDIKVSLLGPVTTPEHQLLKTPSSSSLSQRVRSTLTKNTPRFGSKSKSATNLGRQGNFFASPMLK

[5] = MC4R antagonists, dose response, counter-screen for LGR2 antagonist project, cell-based, plate reader, cherry pick (AID 743444); type: functional;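 further: transfected HEK 293 cells stimulated with alpha-MSH peptide; potency of inhibitors of the alpha-MSH evoked signal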
[6] = target: DNA dC->dU-editing enzyme APOBEC-3G (Homo sapiens, UniProt Q9HC16); assay: Dose Response confirmation of small molecule APOBEC3G DNA Deaminase Inhibitors via a fluorescence-based single-stranded DNA deaminase assay. [Related pubchem assays (depositor defined):AID493012, AID493028]; type: functional
[7] = Fluorescence-based cell-based high throughput dose response assay for inhibitors of the interaction of nucleotide-binding oligomerization domain containing 2 (NOD2) and the receptor-interacting serine-threonine kinase 2 (RIPK2).; type: functional; conditions: Homo sapiens
[8] = target: T2, Alkaline phosphatase, tissue-nonspecific isozyme (Homo sapiens, UniProt P05186); assay: human TNAP enzyme inhibitors, SAR follow-up, biochemical, luminescent, dose response (AID 1056)
T2 sequence (P05186 whole entry): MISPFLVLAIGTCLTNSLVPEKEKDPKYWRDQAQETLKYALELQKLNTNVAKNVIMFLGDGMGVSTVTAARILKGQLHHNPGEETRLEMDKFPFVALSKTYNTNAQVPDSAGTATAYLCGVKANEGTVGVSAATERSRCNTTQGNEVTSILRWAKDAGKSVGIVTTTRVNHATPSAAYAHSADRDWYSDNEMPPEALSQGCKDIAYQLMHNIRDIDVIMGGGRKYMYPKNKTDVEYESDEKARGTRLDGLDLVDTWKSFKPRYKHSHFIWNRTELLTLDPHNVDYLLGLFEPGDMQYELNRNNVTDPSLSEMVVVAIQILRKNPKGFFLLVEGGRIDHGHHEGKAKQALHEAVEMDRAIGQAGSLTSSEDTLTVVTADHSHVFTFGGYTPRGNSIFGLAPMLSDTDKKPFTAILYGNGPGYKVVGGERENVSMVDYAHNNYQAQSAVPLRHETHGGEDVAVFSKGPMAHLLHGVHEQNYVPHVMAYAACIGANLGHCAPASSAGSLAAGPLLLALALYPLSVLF

HeLa = assay: HeLa cell cytotoxicity, dose response, cytotoxicity control, 24 h, cherry-picked samples (AID 504726); type: functional, cell-based; conditions: Homo sapiens;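 further: potency for cytotoxicity as loss of luminescence signal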
[9] = target: Voltage-dependent T-type calcium channel subunit alpha-1H (Homo sapiens, UniProt O95180); type: functional;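 further: channel activity triggered by adding a high calcium stimulation buffer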
[10] = A cytotoxicity screen of small molecule inhibitors of the PhoP region in Salmonella typhi identified in the primary screen. [Related pubchem assays: 1850, 1864, 1985 ]; type: functional
[11] = target: G-protein coupled receptor 55 (Homo sapiens, UniProt Q9Y2T6); assay: GPR55 agonists via beta-arrestin recruitment, primary screen, imaging, U2OS cells, beta-arrestin-GFP redistribution (AID 1961); type: functional
[12] = target: T3, Ubiquitin-conjugating enzyme E2 N (Homo sapiens, UniProt P61088); type: functional;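 further: Dose-response confirmation in a TR-FRET assay detecting UBC13-driven polyubiquitin chain formation, inhibition measured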
T3 sequence (P61088 whole entry): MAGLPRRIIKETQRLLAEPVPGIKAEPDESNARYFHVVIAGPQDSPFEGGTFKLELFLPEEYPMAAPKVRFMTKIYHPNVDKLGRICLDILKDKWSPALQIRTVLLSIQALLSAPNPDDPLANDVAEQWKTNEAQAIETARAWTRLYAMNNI

[13] = target: T4, Replicative DNA helicase DnaB (Mycobacterium tuberculosis, UniProt P9WMR3); assay: DnaB intein splicing inhibitors, dose response, biochemical, cell-free fluorescence (AID 449749); type: functional
T4 sequence (P9WMR3 whole entry): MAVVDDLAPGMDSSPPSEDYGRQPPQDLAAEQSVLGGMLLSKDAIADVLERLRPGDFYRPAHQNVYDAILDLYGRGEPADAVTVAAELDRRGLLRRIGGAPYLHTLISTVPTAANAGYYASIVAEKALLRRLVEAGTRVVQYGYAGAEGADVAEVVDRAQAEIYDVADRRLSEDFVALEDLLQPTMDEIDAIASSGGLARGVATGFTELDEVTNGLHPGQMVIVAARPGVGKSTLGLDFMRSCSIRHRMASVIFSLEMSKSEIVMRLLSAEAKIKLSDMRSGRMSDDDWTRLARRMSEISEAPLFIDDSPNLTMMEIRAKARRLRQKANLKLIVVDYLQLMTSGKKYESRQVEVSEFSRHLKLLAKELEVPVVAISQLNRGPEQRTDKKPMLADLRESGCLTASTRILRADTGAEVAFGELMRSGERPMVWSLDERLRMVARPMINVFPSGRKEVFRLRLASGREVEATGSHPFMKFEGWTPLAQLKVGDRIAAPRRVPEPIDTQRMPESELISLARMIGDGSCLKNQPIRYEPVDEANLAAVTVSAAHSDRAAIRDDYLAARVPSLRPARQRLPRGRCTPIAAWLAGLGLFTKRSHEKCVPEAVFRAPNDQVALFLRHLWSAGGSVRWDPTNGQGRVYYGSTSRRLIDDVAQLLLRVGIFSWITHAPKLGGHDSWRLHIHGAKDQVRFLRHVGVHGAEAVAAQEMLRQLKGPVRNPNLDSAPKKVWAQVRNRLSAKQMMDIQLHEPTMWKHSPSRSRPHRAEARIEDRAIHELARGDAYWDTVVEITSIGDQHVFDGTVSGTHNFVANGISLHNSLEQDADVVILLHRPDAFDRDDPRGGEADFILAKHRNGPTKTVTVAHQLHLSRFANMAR

[14] = target: T5, Microphthalmia-associated transcription factor (Homo sapiens, UniProt O75030); assay: TRPM1 promoter luciferase signal decrease, dose response, MITF inhibitor project, cell-based, SK-MEL-5, cherry-picked, set 3 (AID 493073); type: functional
T5 sequence (O75030 whole entry): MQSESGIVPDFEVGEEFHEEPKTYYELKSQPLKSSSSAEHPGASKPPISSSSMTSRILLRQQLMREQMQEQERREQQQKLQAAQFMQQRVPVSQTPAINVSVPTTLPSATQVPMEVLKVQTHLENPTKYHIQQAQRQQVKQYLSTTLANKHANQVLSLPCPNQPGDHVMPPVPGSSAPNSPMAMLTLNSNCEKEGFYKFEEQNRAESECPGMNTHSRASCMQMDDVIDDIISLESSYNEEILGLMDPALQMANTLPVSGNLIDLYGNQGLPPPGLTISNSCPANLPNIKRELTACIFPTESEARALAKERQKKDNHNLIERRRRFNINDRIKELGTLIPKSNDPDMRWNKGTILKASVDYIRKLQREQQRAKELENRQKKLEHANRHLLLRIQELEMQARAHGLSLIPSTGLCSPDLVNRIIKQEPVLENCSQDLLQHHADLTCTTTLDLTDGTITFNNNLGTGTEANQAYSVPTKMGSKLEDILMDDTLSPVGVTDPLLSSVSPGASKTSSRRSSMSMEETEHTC

Aspartyl aminopeptidase = target: T6, Aspartyl aminopeptidase (Plasmodium falciparum 3D7, UniProt Q8I2J3)
T6 sequence (Q8I2J3 whole entry): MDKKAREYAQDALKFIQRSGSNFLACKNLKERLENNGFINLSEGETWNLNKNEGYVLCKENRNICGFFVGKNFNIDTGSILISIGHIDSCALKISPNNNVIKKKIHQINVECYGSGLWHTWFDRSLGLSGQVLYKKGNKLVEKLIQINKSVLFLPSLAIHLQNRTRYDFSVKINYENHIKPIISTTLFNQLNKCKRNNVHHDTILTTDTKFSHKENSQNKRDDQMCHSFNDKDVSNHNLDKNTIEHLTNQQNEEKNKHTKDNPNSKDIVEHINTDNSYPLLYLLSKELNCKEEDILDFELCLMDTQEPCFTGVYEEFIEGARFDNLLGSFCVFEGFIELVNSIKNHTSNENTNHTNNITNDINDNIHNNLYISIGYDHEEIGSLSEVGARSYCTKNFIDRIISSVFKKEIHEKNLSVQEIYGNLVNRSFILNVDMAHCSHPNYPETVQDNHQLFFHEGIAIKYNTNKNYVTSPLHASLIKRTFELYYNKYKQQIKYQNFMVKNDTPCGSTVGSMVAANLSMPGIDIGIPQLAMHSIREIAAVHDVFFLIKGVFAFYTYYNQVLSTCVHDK

Protein RecA = target: T7, Protein RecA (Mycobacterium tuberculosis, UniProt P9WHJ3); assay: Fluorescence Cell-Free Homogeneous Dose Retest to Identify Inhibitors of RecA-Intein Splicing Activity. [Related pubchem assays (depositor defined):AID2097, AID2223, AID489010, AID492950]; type: functional
T7 sequence (P9WHJ3 whole entry): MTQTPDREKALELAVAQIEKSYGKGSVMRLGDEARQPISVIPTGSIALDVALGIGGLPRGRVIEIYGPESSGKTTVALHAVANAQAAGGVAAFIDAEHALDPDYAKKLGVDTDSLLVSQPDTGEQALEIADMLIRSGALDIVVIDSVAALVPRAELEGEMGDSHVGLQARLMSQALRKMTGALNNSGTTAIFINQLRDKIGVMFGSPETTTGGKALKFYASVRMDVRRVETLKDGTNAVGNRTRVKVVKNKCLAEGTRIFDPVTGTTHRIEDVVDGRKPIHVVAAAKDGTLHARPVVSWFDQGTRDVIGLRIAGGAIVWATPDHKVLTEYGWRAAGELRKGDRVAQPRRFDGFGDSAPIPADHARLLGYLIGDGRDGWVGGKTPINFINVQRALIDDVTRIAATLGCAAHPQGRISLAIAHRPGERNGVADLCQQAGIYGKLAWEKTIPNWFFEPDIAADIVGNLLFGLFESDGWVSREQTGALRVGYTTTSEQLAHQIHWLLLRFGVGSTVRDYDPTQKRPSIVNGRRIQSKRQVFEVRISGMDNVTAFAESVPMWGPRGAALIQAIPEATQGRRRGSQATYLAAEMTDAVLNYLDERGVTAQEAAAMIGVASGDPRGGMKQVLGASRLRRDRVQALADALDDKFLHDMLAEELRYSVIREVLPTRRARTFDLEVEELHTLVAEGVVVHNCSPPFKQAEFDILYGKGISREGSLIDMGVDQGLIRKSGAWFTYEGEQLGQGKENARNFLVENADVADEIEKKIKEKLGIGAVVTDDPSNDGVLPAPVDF

Procathepsin L = Procathepsin L (Homo sapiens, UniProt P07711)
[15] = target: Peroxisome proliferator-activated receptor gamma/Nuclear receptor corepressor 2 (Homo sapiens, UniProt P37231+Q9Y618); type: functional
[16] = target: Photoreceptor-specific nuclear receptor (Homo sapiens, UniProt Q9Y5X4); type: functional;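 further: potency for compounds that break the NR2E3 corepressor complex and count as activators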
Photoreceptor-specific nuclear receptor, sequence (Q9Y5X4 whole entry): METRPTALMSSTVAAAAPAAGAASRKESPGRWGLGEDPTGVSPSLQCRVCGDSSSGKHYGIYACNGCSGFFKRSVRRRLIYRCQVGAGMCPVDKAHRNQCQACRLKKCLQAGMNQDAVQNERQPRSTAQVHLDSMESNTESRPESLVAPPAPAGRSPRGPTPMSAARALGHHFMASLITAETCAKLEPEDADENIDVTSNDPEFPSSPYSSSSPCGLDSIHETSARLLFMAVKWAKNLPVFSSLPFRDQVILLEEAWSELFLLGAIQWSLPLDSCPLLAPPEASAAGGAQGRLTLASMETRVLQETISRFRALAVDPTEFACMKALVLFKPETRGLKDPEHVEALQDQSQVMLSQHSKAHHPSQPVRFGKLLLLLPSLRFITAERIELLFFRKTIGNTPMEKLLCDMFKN

Voltage-dependent T-type calcium channel subunit alpha-1H, sequence (O95180 whole entry): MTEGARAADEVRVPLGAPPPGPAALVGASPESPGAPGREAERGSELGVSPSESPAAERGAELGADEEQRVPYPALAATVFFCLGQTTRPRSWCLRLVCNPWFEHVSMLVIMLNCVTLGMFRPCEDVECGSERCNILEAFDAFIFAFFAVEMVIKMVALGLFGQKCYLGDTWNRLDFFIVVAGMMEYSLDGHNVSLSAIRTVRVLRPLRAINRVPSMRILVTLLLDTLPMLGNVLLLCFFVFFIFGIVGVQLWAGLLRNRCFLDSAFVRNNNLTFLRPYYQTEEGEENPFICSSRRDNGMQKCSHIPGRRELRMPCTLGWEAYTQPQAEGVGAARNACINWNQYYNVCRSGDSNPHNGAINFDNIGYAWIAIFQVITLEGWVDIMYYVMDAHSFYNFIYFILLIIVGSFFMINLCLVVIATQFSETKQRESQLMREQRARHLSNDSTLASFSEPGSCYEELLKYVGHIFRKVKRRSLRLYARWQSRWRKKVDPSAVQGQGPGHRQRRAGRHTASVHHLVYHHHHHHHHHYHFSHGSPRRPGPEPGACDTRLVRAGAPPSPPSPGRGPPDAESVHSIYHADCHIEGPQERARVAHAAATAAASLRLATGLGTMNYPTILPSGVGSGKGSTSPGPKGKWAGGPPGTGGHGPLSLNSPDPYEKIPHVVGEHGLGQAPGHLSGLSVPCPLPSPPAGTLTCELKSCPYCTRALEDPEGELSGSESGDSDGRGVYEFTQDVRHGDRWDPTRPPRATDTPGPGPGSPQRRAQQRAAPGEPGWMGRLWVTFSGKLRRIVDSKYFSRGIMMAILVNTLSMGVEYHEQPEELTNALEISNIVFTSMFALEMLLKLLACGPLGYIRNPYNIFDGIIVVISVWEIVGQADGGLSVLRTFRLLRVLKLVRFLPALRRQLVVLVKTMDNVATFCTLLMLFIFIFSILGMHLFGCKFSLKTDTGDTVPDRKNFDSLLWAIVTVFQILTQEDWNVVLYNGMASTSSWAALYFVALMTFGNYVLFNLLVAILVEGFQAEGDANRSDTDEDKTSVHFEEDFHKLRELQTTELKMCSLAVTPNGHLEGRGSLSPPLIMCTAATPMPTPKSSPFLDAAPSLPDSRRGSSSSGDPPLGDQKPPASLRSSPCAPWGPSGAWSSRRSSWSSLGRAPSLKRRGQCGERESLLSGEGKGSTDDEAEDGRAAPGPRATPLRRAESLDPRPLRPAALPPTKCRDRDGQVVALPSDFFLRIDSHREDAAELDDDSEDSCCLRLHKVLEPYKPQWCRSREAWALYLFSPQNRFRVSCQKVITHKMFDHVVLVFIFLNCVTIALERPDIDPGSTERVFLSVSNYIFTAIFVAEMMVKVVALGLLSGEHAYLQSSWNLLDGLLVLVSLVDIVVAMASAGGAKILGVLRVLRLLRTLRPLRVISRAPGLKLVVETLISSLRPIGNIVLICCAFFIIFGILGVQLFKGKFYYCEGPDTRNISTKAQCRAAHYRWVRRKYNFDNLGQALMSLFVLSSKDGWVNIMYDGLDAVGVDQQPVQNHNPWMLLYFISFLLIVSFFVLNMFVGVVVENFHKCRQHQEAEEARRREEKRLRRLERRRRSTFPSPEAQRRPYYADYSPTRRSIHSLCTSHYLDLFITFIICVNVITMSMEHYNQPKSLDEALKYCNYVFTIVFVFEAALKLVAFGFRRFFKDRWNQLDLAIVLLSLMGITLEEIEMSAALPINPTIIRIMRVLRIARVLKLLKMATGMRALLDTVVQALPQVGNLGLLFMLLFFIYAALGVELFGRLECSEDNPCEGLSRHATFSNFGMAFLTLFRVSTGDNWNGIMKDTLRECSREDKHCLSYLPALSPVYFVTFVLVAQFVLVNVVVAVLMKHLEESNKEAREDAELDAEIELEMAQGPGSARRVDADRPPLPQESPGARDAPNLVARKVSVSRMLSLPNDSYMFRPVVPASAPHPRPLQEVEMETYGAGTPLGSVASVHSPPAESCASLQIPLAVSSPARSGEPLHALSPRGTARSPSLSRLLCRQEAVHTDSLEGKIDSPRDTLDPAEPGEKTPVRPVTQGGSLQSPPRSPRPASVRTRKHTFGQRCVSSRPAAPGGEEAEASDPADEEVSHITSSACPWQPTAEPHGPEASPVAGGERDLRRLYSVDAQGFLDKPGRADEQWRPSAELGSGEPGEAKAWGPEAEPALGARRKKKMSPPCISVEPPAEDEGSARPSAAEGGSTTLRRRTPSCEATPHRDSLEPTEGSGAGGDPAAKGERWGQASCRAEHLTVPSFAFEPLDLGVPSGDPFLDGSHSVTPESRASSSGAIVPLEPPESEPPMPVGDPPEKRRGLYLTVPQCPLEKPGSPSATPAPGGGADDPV
G-protein coupled receptor 55, sequence (Q9Y2T6 whole entry): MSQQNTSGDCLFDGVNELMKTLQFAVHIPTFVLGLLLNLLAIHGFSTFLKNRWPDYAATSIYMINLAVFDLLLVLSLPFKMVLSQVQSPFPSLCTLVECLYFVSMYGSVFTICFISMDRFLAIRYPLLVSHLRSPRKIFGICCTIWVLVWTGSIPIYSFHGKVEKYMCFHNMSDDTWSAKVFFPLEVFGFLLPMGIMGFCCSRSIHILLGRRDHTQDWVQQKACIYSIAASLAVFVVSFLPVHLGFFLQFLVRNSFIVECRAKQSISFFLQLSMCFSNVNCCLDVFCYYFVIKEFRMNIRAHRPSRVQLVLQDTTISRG
Procathepsin L, sequence (P07711 whole entry): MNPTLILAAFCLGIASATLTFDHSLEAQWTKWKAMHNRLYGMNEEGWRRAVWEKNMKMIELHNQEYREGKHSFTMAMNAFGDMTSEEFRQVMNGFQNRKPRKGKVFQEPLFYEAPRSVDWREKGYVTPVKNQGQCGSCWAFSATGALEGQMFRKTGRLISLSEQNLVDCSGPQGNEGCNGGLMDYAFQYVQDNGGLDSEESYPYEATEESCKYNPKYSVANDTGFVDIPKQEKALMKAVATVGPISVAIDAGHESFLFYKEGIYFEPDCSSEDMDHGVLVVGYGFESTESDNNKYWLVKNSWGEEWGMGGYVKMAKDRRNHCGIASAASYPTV
Beta Lactamase, sequence (Q932Y6 whole entry): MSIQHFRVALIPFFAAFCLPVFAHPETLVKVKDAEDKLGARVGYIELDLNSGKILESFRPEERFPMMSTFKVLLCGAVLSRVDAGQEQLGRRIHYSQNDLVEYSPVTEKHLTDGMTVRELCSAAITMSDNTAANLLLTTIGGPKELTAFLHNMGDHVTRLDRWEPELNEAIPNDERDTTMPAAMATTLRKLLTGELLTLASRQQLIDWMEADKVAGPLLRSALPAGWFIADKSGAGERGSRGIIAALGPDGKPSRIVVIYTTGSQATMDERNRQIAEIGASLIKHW
Phosphoethanolamine/phosphocholine phosphatase, sequence (Q8TCT1 whole entry): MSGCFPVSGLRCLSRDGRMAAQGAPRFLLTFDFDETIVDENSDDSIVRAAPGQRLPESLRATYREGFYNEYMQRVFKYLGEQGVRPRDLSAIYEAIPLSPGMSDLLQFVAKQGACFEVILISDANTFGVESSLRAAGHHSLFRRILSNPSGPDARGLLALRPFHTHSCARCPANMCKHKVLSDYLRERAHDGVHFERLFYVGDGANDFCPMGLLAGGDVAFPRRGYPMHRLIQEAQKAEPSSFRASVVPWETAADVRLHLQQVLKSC
DNA dC->dU-editing enzyme APOBEC-3G, sequence (Q9HC16 whole entry, the tested form may be a part): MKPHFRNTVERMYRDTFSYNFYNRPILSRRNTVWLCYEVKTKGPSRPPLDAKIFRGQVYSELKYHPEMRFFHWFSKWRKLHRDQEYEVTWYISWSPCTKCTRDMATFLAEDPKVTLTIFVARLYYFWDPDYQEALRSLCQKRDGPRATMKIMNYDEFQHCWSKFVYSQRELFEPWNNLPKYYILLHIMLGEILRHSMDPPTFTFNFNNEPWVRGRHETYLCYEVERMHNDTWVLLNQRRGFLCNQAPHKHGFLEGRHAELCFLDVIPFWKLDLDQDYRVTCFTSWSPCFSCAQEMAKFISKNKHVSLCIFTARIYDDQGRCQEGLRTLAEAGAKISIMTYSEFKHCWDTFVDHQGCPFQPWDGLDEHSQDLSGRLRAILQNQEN

COc1ccc(-n2sc3ccc(F)cc3c2=O)cc1
CC50 [1]: 100 µM (active)
AC50 [2]: 6.6 µM (active)
IC50 (Beta Lactamase): 19.9 µM (inactive)
IC50 [3]: 6.67 µM (inactive)
IC50 [4]: 45.2 µM (active)
AC50 [5]: 5.92 µM (active)
IC50 [6]: 10.8 µM (active)
IC50 [7]: 5.42 µM (active)
IC50 [8]: > 100 µM (inactive)

O=C1c2ccccc2C(=O)N1Cc1ccc2c(c1)OCO2
AC50 (HeLa): 42.5 µM (active)

O=C(Nc1ccc(S(=O)(=O)N2CCc3ccccc3C2)cc1)C1CCCO1 (stereo not drawn)
EC50 [9]: 3.27 µM (active)

CCCCCC(=O)NC(=S)NNC(=O)CC
EC50 [10]: > 50 µM (active)

CC(C)(C)OC(=O)CN1C(=O)S/C(=C\c2ccc(-c3cccc(C(=O)O)c3)o2)C1=O
EC50 [11]: 4.23 µM (active)

COc1cc(C(=O)Nc2ccc3c(c2)OCCO3)ccc1OC(C)C
EC50 [10]: > 50 µM (active)

CN(Cc1ccccc1)C(=O)CCSc1nc(-c2ccc3c(c2)OCO3)cc(C(F)(F)F)n1
EC50 [9]: 4.53 µM (active)
IC50 [12]: > 20 µM (inactive)

CC1=NNC(=O)/C1=C\c1cn(-c2ccccc2)nc1-c1ccc(F)cc1
AC50 [13]: 3.69 µM (active)
AC50 [14]: 6.52 µM (active)
IC50 (Aspartyl aminopeptidase): 0.71 µM (active)
EC50 (Protein RecA): 1.35 µM (active)
IC50 (Procathepsin L): > 59.6 µM (not active)

CCOc1ccccc1NC(=O)CSc1nc(N)c(C#N)cc1C#N
IC50 [15]: 3.03 µM (active)
IC50 [16]: > 39.8 µM (not active)
